Assay results reported in US4221803A, “Substituted dibenzyl ethers and pharmaceutical compositions containing said ethers for the treatment of infections” (Recordati, S.A., priority 1979, dated 1980).
Values after ≈ are worked out from the molar mass of the structure shown. Where two headings read alike, the source gives them in different places.

Tests used:
M.Canis 28 = experiment: Antimycotic activity, two-fold serial broth dilution; format: cell-based; conditions: Microsporum canis, 168 h, Sabouraud liquid pH 5.7, 25° C., 7 days
Method: (§1) In Table II are reported the minimal inhibent concentrations (MIC) of the compounds I and of both the comparison substances. For MIC, the minimal concentration is intended, i.e., one which is able to inhibit the growth of several fungi and yeasts. The MIC values have been determined according to the usual two-fold serial broth dilution technique.
(§2) Medium: Sabouraud liquid pH 5.7 (5 ml per tube)
(§3) For Aspergillus niger, after filtration, a 1/10 dilution in physiological solution was prepared. 0.1 ml of this dilution constituted the inoculum for 5 ml.
(§4) Temperature and incubation time: 25° C. for 7 days.

T.Rubrum 2121 = experiment: as above; format: cell-based
Method: as §1, §2, §3, §4

A.Niger = experiment: as above; format: cell-based; conditions: Aspergillus niger, 168 h, Sabouraud liquid pH 5.7, 25° C., 7 days, inoculum 1/10 dilution
Method: as §1, §2, §3, §4

E.Floccosum = experiment: as above; format: cell-based; conditions: Epidermophyton floccosum, 168 h, Sabouraud liquid pH 5.7, 25° C., 7 days
Method: as §1, §2, §3, §4

T.Mentagroph. 10148 = experiment: as above; format: cell-based; conditions: 168 h
Method: as §1, §2, §3, §4

T.Mentagroph. 5865 = experiment: as above; format: cell-based; conditions: 168 h, Sabouraud liquid pH 5.7, 25° C., 7 days
Method: as §1, §2, §3, §4

T.Mentagroph. 2538 = experiment: as above; format: cell-based; conditions: 168 h, Sabouraud liquid pH 5.7, 25° C., 7 days
Method: as §1, §2, §3, §4

P.Chrysogenum = experiment: as above; format: cell-based; conditions: Penicillium chrysogenum, 168 h, Sabouraud liquid pH 5.7, 25° C., 7 days
Method: as §1, §2, §3, §4

T.Verrucosum = experiment: as above; format: cell-based; conditions: Trichophyton verrucosum, 168 h
Method: as §1, §2, §3, §4

[1] = Acute toxicity per os in the mouse; conditions: in vivo, po
Source text: In Table I are reported the acute toxicity values (LD50) of the compounds I and of both the comparison substances. Toxicity, given in mg/Kg, has been evaluated per os in the mouse by conventional methods.

Str.hemolyt 821 = experiment: Antibacterial activity, two-fold serial broth dilution; format: cell-based; conditions: Tryptic soy broth pH 7.3, 37° C., 18 hours
Method: (§5) The MIC values of the products under examination and of both comparison substances, referred to a certain number of gram positive bacteria and determined according to the conventional two-fold serial broth dilution technique, are reported in Table III.
(§6) Medium: Tryptic soy broth pH 7.3 (5 ml per tube)
(§7) Inoculum: The day before the test, the microorganisms to be tested were transplanted in their respective media. After 18 hours incubation at 37° C., 0.1 ml of a 1:100 diluted suspension of each strain in broth, were inoculated in 5 ml of medium containing the products under examination at a serial concentration of from 0.009 to 160 mcg/ml.
(§8) Temperature and incubation time: 37° C. for 18 hours.

Str.hemolyt 203 = experiment: as above; format: cell-based
Method: as §5, §6, §7, §8

Cl. novyi = experiment: as above; format: cell-based; conditions: Clostridium novyi, Tryptic soy broth pH 7.3, 37° C., 18 hours
Method: as §5, §6, §7, §8

S.aureus 10B = experiment: as above; format: cell-based; conditions: Staphylococcus aureus
Method: as §5, §6, §7, §8

S.aureus SG 511 = experiment: as above; format: cell-based; conditions: Staphylococcus aureus
Method: as §5, §6, §7, §8

B.subtilis = experiment: as above; format: cell-based; conditions: Bacillus subtilis
Method: as §5, §6, §7, §8

C.Neoformans = experiment: Antimycotic activity, two-fold serial broth dilution; format: cell-based; conditions: Cryptococcus neoformans
Method: as §1, §2
(§9) Inoculum: Yeasts were grown in Sabouraud liquid for 24 hours (Cryptococcus neoformans for 2 days). Cells were collected by centrifugation at 6500 rpm and again suspended in physiological solution so as to have a suspension giving on a Coleman Jr II spectrophotometer, at a wavelength of 650 nm, a 50% transparence (T). 0.1 ml of this suspension constituted the inoculum for 5 ml.
(§10) Temperature and incubation time: 37° C. for 48 hours.

C.Albicans 1040 = experiment: as above; format: cell-based; conditions: Candida albicans, Sabouraud liquid pH 5.7, 37° C., 48 hours
Method: as §1, §2, §9, §10

C.Albicans Grunenthal = experiment: as above; format: cell-based; conditions: Candida albicans, Sabouraud liquid pH 5.7, 37° C., 48 hours
Method: as §1, §2, §9, §10

C.Albicans 1041 = experiment: as above; format: cell-based; conditions: Candida albicans, Sabouraud liquid pH 5.7, 37° C., 48 hours
Method: as §1, §2, §9, §10

C.Albicans R = experiment: as above; format: cell-based; conditions: Candida albicans, Sabouraud liquid pH 5.7, 37° C., 48 hours
Method: as §1, §2, §9, §10

[2] = Trichophyton rubrum, 168 h, T.Rubrum 2121, Sabouraud liquid pH 5.7, 25° C., 7 days, read-out: Antimycotic activity (MIC)
[3] = T.Mentagroph. 10148, Sabouraud liquid pH 5.7, 25° C., 7 days, read-out: Antimycotic activity (MIC)
[4] = T.Verrucosum, Sabouraud liquid pH 5.7, 25° C., 7 days, read-out: Antimycotic activity (MIC)
[5] = Str.hemolyt 203, Tryptic soy broth pH 7.3, 37° C., 18 hours, read-out: Antibacterial activity (MIC)
[6] = S.aureus 10B, Tryptic soy broth pH 7.3, 37° C., 18 hours, read-out: Antibacterial activity (MIC)
[7] = SG511, S.aureus SG 511, Tryptic soy broth pH 7.3, 37° C., 18 hours, read-out: Antibacterial activity (MIC)
[8] = B.subtilis, Tryptic soy broth pH 7.3, 37° C., 18 hours, read-out: Antibacterial activity (MIC)
[9] = C.Neoformans, Sabouraud liquid pH 5.7, 37° C., 48 hours, read-out: Antimycotic activity (MIC)
[10] = Trichophyton rubrum, 2121, 168 h, pH 5.7, read-out: Antimycotic activity (MIC)
[11] = pH 5.7, read-out: Antimycotic activity (MIC)
[12] = 10B, 18 h, pH 7.3, read-out: Antibacterial activity (MIC)
[13] = SG511, 18 h, pH 7.3, read-out: Antibacterial activity (MIC)
[14] = 18 h, pH 7.3, read-out: Antibacterial activity (MIC)
[15] = 48 h, pH 5.7, read-out: Antimycotic activity (MIC)

| Structure (SMILES) | MIC (M.Canis 28) | MIC (T.Rubrum 2121; [2]) | MIC (A.Niger) | MIC (E.Floccosum) | MIC (T.Mentagroph. 10148; [3]) | MIC (T.Mentagroph. 5865) | MIC (T.Mentagroph. 2538) | MIC (P.Chrysogenum) | MIC (T.Verrucosum; [4]) | LD50 [1] | MIC (Str.hemolyt 821) | MIC (Str.hemolyt 203; [5]) | MIC (Cl. novyi) | MIC (S.aureus 10B; [6]) | MIC (S.aureus SG 511; [7]) | MIC (B.subtilis; [8]) | MIC (C.Albicans 1040) | MIC (C.Albicans Grunenthal) | MIC (C.Albicans 1041) | MIC (C.Albicans R) | also measured |
| --- | --- | --- | --- | --- | --- | --- | --- | --- | --- | --- | --- | --- | --- | --- | --- | --- | --- | --- | --- | --- | --- |
| Clc1ccc(C(Cn2ccnc2)OCc2ccc(Sc3ccccc3)cc2)c(Cl)c1 (stereo not drawn) [R=C6 H5 S, 2,4-Dichloro-4'-phenylthio-α-(N-imidazolyl-methyl)-dibenzyl ether] | 2.5 µg/mL (≈ 5.49 µM) | 0.625 µg/mL (≈ 1.37 µM) | 10 µg/mL (≈ 22 µM) | 5 µg/mL (≈ 11 µM) | 0.625 µg/mL (≈ 1.37 µM) | 1.25 µg/mL (≈ 2.74 µM) | 0.156 µg/mL (≈ 0.343 µM) | 5 µg/mL (≈ 11 µM) | 1.25 µg/mL (≈ 2.74 µM) | 3000 mg/kg | 0.156 µg/mL (≈ 0.343 µM) | 0.078 µg/mL (≈ 0.171 µM) | 5 µg/mL (≈ 11 µM) | 0.018 µg/mL (≈ 0.0395 µM) | 0.039 µg/mL (≈ 0.0856 µM) | 0.078 µg/mL (≈ 0.171 µM) | 80 µg/mL (≈ 176 µM) | 40 µg/mL (≈ 87.8 µM) | 80 µg/mL (≈ 176 µM) | 40 µg/mL (≈ 87.8 µM) | MIC (C.Neoformans; [9]): 0.156 µg/mL (≈ 0.343 µM) |
| Clc1ccc(C(Cn2ccnc2)OCc2ccc(-c3ccccc3)cc2)c(Cl)c1 (stereo not drawn) [R=C6 H5, 2,4-Dichloro-4'-phenyl-α-(N-imidazolyl-methyl)-dibenzyl ether] | 20 µg/mL (≈ 47.2 µM) | 0.625 µg/mL (≈ 1.48 µM) | 20 µg/mL (≈ 47.2 µM) | 10 µg/mL (≈ 23.6 µM) | 0.625 µg/mL (≈ 1.48 µM) | 1.25 µg/mL (≈ 2.95 µM) | 0.156 µg/mL (≈ 0.368 µM) | 20 µg/mL (≈ 47.2 µM) | 10 µg/mL (≈ 23.6 µM) | 2400 mg/kg | 0.156 µg/mL (≈ 0.368 µM) | 0.312 µg/mL (≈ 0.737 µM) | < 1.25 µg/mL | 0.039 µg/mL (≈ 0.0921 µM) | 0.039 µg/mL (≈ 0.0921 µM) | 0.156 µg/mL (≈ 0.368 µM) | 10 µg/mL (≈ 23.6 µM) | 5 µg/mL (≈ 11.8 µM) | 20 µg/mL (≈ 47.2 µM) | 5 µg/mL (≈ 11.8 µM) | MIC (C.Neoformans; [9]): 0.312 µg/mL (≈ 0.737 µM) |
| Clc1ccccc1C(c1ccccc1)(c1ccccc1)n1ccnc1 [Clotrimazole, [(imidazol-1-yl)-2-(o-chlorophenyl)-2,2-diphenylmethane]] | 2.5 µg/mL (≈ 7.25 µM) | – | 10 µg/mL (≈ 29 µM) | 5 µg/mL (≈ 14.5 µM) | – | 0.62 µg/mL (≈ 1.8 µM) | 0.078 µg/mL (≈ 0.226 µM) | 40 µg/mL (≈ 116 µM) | – | 880 mg/kg | 2.5 µg/mL (≈ 7.25 µM) | 5 µg/mL (≈ 14.5 µM) | > 160 µg/mL | – | – | – | 40 µg/mL (≈ 116 µM) | 10 µg/mL (≈ 29 µM) | 40 µg/mL (≈ 116 µM) | 10 µg/mL (≈ 29 µM) | MIC (T.Rubrum 2121; [10]): 1.25 µg/mL (≈ 3.62 µM); MIC (T.Mentagroph. 10148; [11]): 1.25 µg/mL (≈ 3.62 µM); MIC (T.Verrucosum; [11]): 1.25 µg/mL (≈ 3.62 µM); MIC (S.aureus 10B; [12]): 1.25 µg/mL (≈ 3.62 µM); MIC (S.aureus SG 511; [13]): 0.312 µg/mL (≈ 0.905 µM); MIC (B.subtilis; [14]): 2.5 µg/mL (≈ 7.25 µM); MIC (C.Neoformans; [15]): 0.625 µg/mL (≈ 1.81 µM) |
| Clc1ccc(COC(Cn2ccnc2)c2ccc(Cl)cc2Cl)c(Cl)c1 (stereo not drawn) [Miconazole, 2,2',4,4'-tetrachloro-α-(N-imidazolyl-methyl)-dibenzyl ether] | 5 µg/mL (≈ 12 µM) | – | 40 µg/mL (≈ 96.1 µM) | 5 µg/mL (≈ 12 µM) | – | 0.31 µg/mL (≈ 0.745 µM) | 0.078 µg/mL (≈ 0.187 µM) | 20 µg/mL (≈ 48.1 µM) | 2.5 µg/mL (≈ 6.01 µM) | 870 mg/kg | 1.25 µg/mL (≈ 3 µM) | – | < 1.25 µg/mL | – | – | – | 20 µg/mL (≈ 48.1 µM) | 5 µg/mL (≈ 12 µM) | 20 µg/mL (≈ 48.1 µM) | 5 µg/mL (≈ 12 µM) | MIC (T.Rubrum 2121; [10]): 0.312 µg/mL (≈ 0.75 µM); MIC (T.Mentagroph. 10148; [11]): 0.625 µg/mL (≈ 1.5 µM); MIC (Str.hemolyt 203; [14]): 0.625 µg/mL (≈ 1.5 µM); MIC (S.aureus 10B; [12]): 0.312 µg/mL (≈ 0.75 µM); MIC (S.aureus SG 511; [13]): 0.312 µg/mL (≈ 0.75 µM); MIC (B.subtilis; [14]): 0.625 µg/mL (≈ 1.5 µM); MIC (C.Neoformans; [15]): 0.078 µg/mL (≈ 0.187 µM) |
